Source: patent US12077503B2, “Substituted cyclic amides and their use as herbicides” (FMC CORPORATION, priority 2015, dated 2024)

How the values were obtained:
Format in all cases: in vivo
[1] = tested on: sedge, umbrella (small-flower umbrella sedge, Cyperus difformis); experiment: Test B flooded paddy test; conditions: Flood, 250 g ai/ha; 0 to 100 scale where 0 is no effect and 100 is complete control; 13 to 15 d
In short: (§1)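 Compound goes directly into floodwater once pots are flooded 3 cm above soil, targeting plants at two leaves; the water depth is then held for the test duration. Plants sit 13–15 d in a greenhouse and are rated visually, 100 denoting complete control.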

[2] = tested on: barnyardgrass (Echinochloa crus-galli); experiment: Test B flooded paddy test; conditions: Flood, 250 g ai/ha; 0 to 100 scale where 0 is no effect and 100 is complete control; 13 to 15 d
In short: as §1

[3] = tested on: ducksalad (Heteranthera limosa); experiment: Test B flooded paddy test; conditions: Flood, 250 g ai/ha; 0 to 100 scale where 0 is no effect and 100 is complete control; 13 to 15 d
In short: as §1

rice (Oryra sativa) = experiment: Test B flooded paddy test; conditions: Flood, 250 g ai/ha; 0 to 100 scale where 0 is no effect and 100 is complete control; 13 to 15 d
In short: as §1

[4] = tested on: pigweed (Amaranthus retroflexus); experiment: Test C preemergence; conditions: for Plant response rating (scale of 0 to 100), Pigweed: 31 g ai/ha, 0 is no effect, 100 is complete control; for Plant response rating, Pigweed: scale 0 to 100, 0 no effect, 100 complete control
In short: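 Assessment: visual, 13–15 d after treatment, 0 (no effect) to 100 (complete control) relative to controls. Treatment: preemergence to seeds in loam-sand soil, or postemergence to 1- to 4-leaf plants in peat-based medium. Formulation: non-phytotoxic solvent mixture with surfactant.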

Kochia (Kochia scoparia) [5] = experiment: Test A postemergence
In short: (§2)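 Visual injury, scored on a 0–100 scale relative to untreated controls, was recorded about 10 d after application. Treatments were a preemergence soil spray over planted seeds or a postemergence spray on plants at the one- to two-leaf stage, 2 to 10 cm tall, all in loam soil–sand blend in the greenhouse.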

[6] = tested on: ragweed (common ragweed, Ambrosia elatior); experiment: Test A postemergence
In short: as §2

[7] = tested on: pigweed (Amaranthus retroflexus); experiment: Test A postemergence
In short: as §2

[8] = tested on: giant foxtail (Setaria faberii); experiment: Test A postemergence
In short: as §2

[9] = tested on: ryegrass, Italian (Italian ryegrass, Lolium multiflorum); experiment: Test A postemergence
In short: as §2

[10] = tested on: blackgrass (Alopecurus myosuroides); experiment: Test A postemergence
In short: as §2

[11] = tested on: wheat (Triticum aestivum); experiment: Test A postemergence
In short: as §2

[12] = tested on: Galium (catchweed bedstraw, Galium aparine); experiment: Test A postemergence
In short: as §2

[13] = tested on: barnyardgrass (Echinochloa crus-galli); experiment: Test A postemergence
In short: as §2

corn (Zea mays) = experiment: Test A postemergence
In short: as §2

Kochia (Kochia scoparia) [14] = experiment: Test A preemergence
In short: as §2

[15] = tested on: ragweed (common ragweed, Ambrosia elatior); experiment: Test A preemergence
In short: as §2

[16] = tested on: pigweed (Amaranthus retroflexus); experiment: Test A preemergence
[17] = tested on: giant foxtail (Setaria faberii); experiment: Test A preemergence
In short: as §2

[18] = tested on: ryegrass, Italian (Italian ryegrass, Lolium multiflorum); experiment: Test A preemergence
In short: as §2

[19] = tested on: barnyardgrass (Echinochloa crus-galli); experiment: Test A preemergence
In short: as §2

[20] = 125 g ai/ha, postemergence, visual injury rating on 0 to 100 scale (0 no effect, 100 complete control), approx. 10 d
[21] = Postemergence, 500 g ai/ha, 0 to 100 scale where 0 is no effect and 100 is complete control
[22] = 125 g ai/ha, Preemergence, visual injury after approximately 10 d, 0 to 100 scale where 0 is no effect and 100 is complete control
[23] = Preemergence, 500 g ai/ha, visual injury approx. 10 d
[24] = 125 g ai/ha, postemergence, visual rating after approx. 10 d, 0 to 100 scale (0 no effect, 100 complete control)
[25] = 500 g ai/ha, preemergence, 0 to 100 scale, 0 = no effect, 100 = complete control

SMILES	Plant response rating, Sedge, Umbrella [1]	Plant response rating, Barnyardgrass [2]	Plant response rating, Ducksalad [3]	Plant response rating, Rice (rice (Oryra sativa))	Plant response rating (scale of 0 to 100), Pigweed [4]	Plant response rating, Pigweed ([4]; 62 g ai/ha)	Plant response rating, Pigweed ([4]; 125 g ai/ha)	Plant response rating, Pigweed ([4]; 250 g ai/ha)	Plant response rating, Kochia (Kochia (Kochia scoparia) [5]; [21])	Plant response rating, Ragweed [6, 21]	Plant response rating, Pigweed [7, 21]	Plant response rating, Foxtail, Giant [8, 21]	Plant response rating, Ryegrass, Italian [9, 21]	Plant response rating, Blackgrass [10, 21]	Plant response rating, Wheat [11, 21]	Plant response rating, Galium [12, 21]	Plant response rating, Barnyardgrass [13, 21]	Plant response rating, Corn (corn (Zea mays); [21])	Plant response rating, Kochia (Kochia (Kochia scoparia) [14]; [22])	Plant response rating, Pigweed [16, 22]	also measured
O=C1NCC(c2cc(F)cc(Cl)c2)C1C(=O)Nc1cccc(F)c1F (stereo not drawn) [Compound 492]	0	65	100	25	0	25	75	80	60	70	60	90	50	70	60	60	90	80	60	0	Kochia plant response rating (Kochia (Kochia scoparia) [5]; [20]): 40; Ragweed plant response rating [6, 20]: 30; Pigweed plant response rating [7, 20]: 40; Foxtail, Giant plant response rating [8, 20]: 90; Ryegrass, Italian plant response rating [9, 20]: 20; Blackgrass plant response rating [10, 20]: 50; Wheat plant response rating [11, 20]: 20; Galium plant response rating [12, 20]: 50; Barnyardgrass plant response rating [13, 20]: 90; Corn plant response rating (corn (Zea mays); [20]): 70; Kochia plant response rating (0 to 100 scale, 0 is no effect, 100 is complete control) (Kochia (Kochia scoparia) [14]; [23]): 70; Plant response rating, Ragweed [15, 22]: 30; Ragweed plant response rating (0 to 100 scale, 0 is no effect, 100 is complete control) [15, 23]: 80; Pigweed plant response rating (0 to 100 scale, 0 is no effect, 100 is complete control) [16, 23]: 70; Plant response rating, Foxtail, Giant [17, 22]: 90; Foxtail, Giant plant response rating (0 to 100 scale, 0 is no effect, 100 is complete control) [17, 23]: 90; Plant response rating, Ryegrass, Italian [18, 22]: 50; Ryegrass, Italian plant response rating (0 to 100 scale, 0 is no effect, 100 is complete control) [18, 23]: 50; Plant response rating, Barnyardgrass [19, 22]: 90; Barnyardgrass plant response rating (0 to 100 scale, 0 is no effect, 100 is complete control) [19, 23]: 90
CN1CC(c2ccc(F)c(C(F)(F)F)c2)C(C(=O)Nc2cccc(F)c2F)C1=O (stereo not drawn) [Compound 613]	75	80	98	10	70	80	85	90	70	30	70	90	60	60	50	60	90	80	60	70	Plant response rating, Kochia (Kochia (Kochia scoparia) [5]; [24]): 60; Plant response rating, Ragweed [6, 24]: 20; Plant response rating, Pigweed [7, 24]: 50; Plant response rating, Foxtail, Giant [8, 24]: 90; Plant response rating, Ryegrass, Italian [9, 24]: 60; Plant response rating, Blackgrass [10, 24]: 40; Plant response rating, Wheat [11, 24]: 40; Plant response rating, Galium [12, 24]: 60; Plant response rating, Barnyardgrass [13, 24]: 70; Plant response rating, Corn (corn (Zea mays); [24]): 50; Plant response rating, Kochia (Kochia (Kochia scoparia) [14]; [25]): 70; Plant response rating, Ragweed [15, 22]: 60; Plant response rating, Ragweed [15, 25]: 60; Plant response rating, Pigweed [16, 25]: 70; Plant response rating, Foxtail, Giant [17, 22]: 90; Plant response rating, Foxtail, Giant [17, 25]: 90; Plant response rating, Ryegrass, Italian [18, 22]: 70; Plant response rating, Ryegrass, Italian [18, 25]: 80; Plant response rating, Barnyardgrass [19, 22]: 90; Plant response rating, Barnyardgrass [19, 25]: 90
CN1CC(c2cccc(OC(F)F)c2)C(C(=O)Nc2ccccc2F)C1=O (stereo not drawn) [Compound 618]	0	85	100	10	40	60	60	75	60	20	30	90	50	60	70	60	90	80	90	50	Plant response rating, Kochia (Kochia (Kochia scoparia) [5]; [24]): 40; Plant response rating, Ragweed [6, 24]: 0; Plant response rating, Pigweed [7, 24]: 0; Plant response rating, Foxtail, Giant [8, 24]: 90; Plant response rating, Ryegrass, Italian [9, 24]: 40; Plant response rating, Blackgrass [10, 24]: 50; Plant response rating, Wheat [11, 24]: 50; Plant response rating, Galium [12, 24]: 50; Plant response rating, Barnyardgrass [13, 24]: 90; Plant response rating, Corn (corn (Zea mays); [24]): 80; Plant response rating, Kochia (Kochia (Kochia scoparia) [14]; [25]): 90; Plant response rating, Ragweed [15, 25]: 70; Plant response rating, Pigweed [16, 25]: 90; Plant response rating, Foxtail, Giant [17, 22]: 90; Plant response rating, Foxtail, Giant [17, 25]: 100; Plant response rating, Ryegrass, Italian [18, 22]: 50; Plant response rating, Ryegrass, Italian [18, 25]: 90; Plant response rating, Barnyardgrass [19, 22]: 90; Plant response rating, Barnyardgrass [19, 25]: 90
CN1CC(c2ccc(C(F)(F)F)cc2)C(C(=O)Nc2ccccc2S(C)(=O)=O)C1=O (stereo not drawn) [Compound 624]	0	70	100	20	80	85	85	90	60	0	60	90	30	50	70	50	90	40	40	80	Plant response rating, Kochia (Kochia (Kochia scoparia) [5]; [24]): 0; Plant response rating, Ragweed [6, 24]: 0; Plant response rating, Pigweed [7, 24]: 20; Plant response rating, Foxtail, Giant [8, 24]: 80; Plant response rating, Ryegrass, Italian [9, 24]: 30; Plant response rating, Blackgrass [10, 24]: 40; Plant response rating, Wheat [11, 24]: 20; Plant response rating, Galium [12, 24]: 30; Plant response rating, Barnyardgrass [13, 24]: 80; Plant response rating, Corn (corn (Zea mays); [24]): 0; Plant response rating, Kochia (Kochia (Kochia scoparia) [14]; [25]): 60; Plant response rating, Ragweed [15, 22]: 60; Plant response rating, Ragweed [15, 25]: 70; Plant response rating, Pigweed [16, 25]: 80; Plant response rating, Foxtail, Giant [17, 22]: 90; Plant response rating, Foxtail, Giant [17, 25]: 90; Plant response rating, Ryegrass, Italian [18, 22]: 40; Plant response rating, Ryegrass, Italian [18, 25]: 40; Plant response rating, Barnyardgrass [19, 22]: 90; Plant response rating, Barnyardgrass [19, 25]: 90
